# Measured values reported in US20250073234A1, “COMBINATION THERAPIES INCLUDING PARP1 INHIBITORS” (Cornell University, priority 2022, published 2025).
# Entries after “also recorded” stand apart in the source; their conditions may differ.
# What was measured:
# PC3 cells = assay: Click-iT EdU proliferation of PC3 cells treated with CM from WPMY-1 cells; format: cell-based, human; conditions: Olaparib 10 μM + PEGPH20 2.5 μg/ml or CM incubation with Galunisertib 10 μM
# Procedure: WPMY-1 cells were cultured in DMEN containing 10% FBS (basal conditions) or 10% charcoal stripped FBS (ADT conditions), then the cells were treated with vehicle (DMSO), Olaparib 10 μM, Olaparib 10 μM+PEGPH20 2.5 μg/ml for 96 hours, refreshing media and stimuli at 48 hours, conditioned media (CM) was generated by collecting supernatant on day 4. PC3 cells were seeded in a black-walled well (Thermo Fisher) and serum starved overnight. CM from WPMY-1 cells was added to PC3 for 24 h. PC3 were exposed to EdU incorporation for the last 2 hours. Proliferating cells were detected using Click-iT EdU Alexa fluor 488 (Thermo Fisher) following the manufacturer's instructions. Pictures were taken using EVOS M5000 Imaging System and EdU positive were measured using Fiji (Schindelin et al., 2012).
# [1] = tested on: p62 (SQSTM1) in WPMY-1 cells; assay: p62/SQSTM1 expression in WPMY-1 stromal fibroblasts (immunoblot, qPCR); format: cell-based, human
# Description: To knock out PARP-1 in WPMY-1 cells, single-guide RNA sequences targeting PARP-1 exon2 were purchased from Synthego and transduced into WPMY-1 cells with recombinant Streptococcus pyogenes Cas9 protein (Truecut Cas9 Protein v2, Thermo), using the Neon Transfection System 1 (Invitrogen) following the manufacturer's protocol and single clones were expanded and screened by protein immunoblotting. To perform AP1-A binding site editing in the SQSTM promoter in WPMY-1 cells, single-guide RNA sequences targeting the human AP1-A binding site (Synthego) was transduced into cells with a Cas9 protein and a single-stranded donor oligonucleotide (ssODN, IDT) using Neon Electroporation System. Single clones were expanded and screened for AP1-A editing by Sanger sequencing. A point mutation to disrupt the API enhancer element in the p62 promoter was introduced by Site Directed Mutagenesis (Stratagene). Knockdown of MCT1, MCT4, FOS, PARP1, PARP2, CD38, ATG5, and SIRT1-7 genes in WPMY-1 cells were achieved by siRNA transfection using Lipofectamine RNAiMAX Transfection Reagent (Invitrogen). Transient overexpression was achieved by transfection using X-tremeGENE HP transfection reagent (Roche). Transfected cells were examined 48 hours after transfection. Establishing stably GFP or RFP expressing cells was achieved by lentivirus-mediated transduction. Lentivirus were produced in HEK293T cells using X-tremeGENE HP transfection reagent (Roche). Virus-containing supernatants were collected 48, 72 and 96 hours after transfection, filtered to eliminate cells, and supplemented with 8 μg/ml polybrene. Cells were infected with three rounds of viral supernatants and selected with puromycin (3 μg/ml). For autophagy or proteasome inhibition, WPMY-1 cells were treated for 12 hours with 100 nM bafilomycin Al or 12 hours with 20 μM of MG132, respectively, or vehicle (DMSO). […] For MCT1 inhibition, WPMY-1 cells were treated for 48 hours with 10 μM of AZD3965. For cJUN inhibition, WPMY-1 cells were treated for 48 hours with 10 μM of SP600125. For calpains and caspases inhibition, WPMY-1 cells were treated for 48 hours with 1-20 μM of Calpeptin (Tocris) or z-VAD-FMK (Tocris), respectively. For protein synthesis inhibition, WPMY-1 cells were treated with 50 μg/ml of cycloheximide (Sigma). Conditioned media (CM) was generated by collecting supernatant on day 3. CM was transferred to a 15 ml BD Falcon tube and centrifuged at 1300 rpm for 10 minutes. The supernatant was sterile filtered using a […] (Millex-GV) with a 10 ml syringe barrel. The samples were stored at […] for future experiments. Fractionation of the CM was achieved using Amicon Ultra centrifugal filters (3KUltracel, Millipore). The supernatant was centrifuged at 4000 rpm for 1 hour. The supernatant fraction that was >3 kDa remained above the filter and that which was <3 kDa passed through to the lower chamber. The >3-kDa fraction was resuspended in DMEM to the pre-filtration volume.
# [2] = tested on: human ovarian cancer PDXs; conditions: Niraparib vs vehicle, GSE163854
# Description: (§1) For RNA-Seq, sequencing Fastq files were uploaded to BaseSpace and processed with RNASeq Alignment App (Illumina) to obtain raw reads counts for each gene. For 3′RNA-Seq, read data was processed with the BlueBee Genomics Platform (BlueBee, San Mateo, CA). GenePattern (https://genepattern.broadinstitute.org/gp/pages/index.jsf) was used to collapse gene matrix files (CollapseDataset module) or to assess the statistical significance of differential gene expression (ComparativeMarkerSelection module for microarray data and DESeq2 module for RNA-seq data). […] For ATACSeq, FASTQ files from ATAC-seq reads were aligned to UCSC mm10 with Bowtie2 (bowtie2-very-sensitive-x mm10-1 FILE_merged_R1.fastq-2 FILE_merged_R2.fastq-X 1000-p 12 | samtools view-u-| samtools sort->FILE.bam). […] For motif enrichment analysis in the differential peaks between vehicle and Olaparib-treated cells, p-values were calculated using findMotifsGenome.pl with—size given,—len 6,8,10,12 and—mask program of HOMER v4.10.3. […] For ATACSeq, FASTQ files from ATAC-seq reads were aligned to UCSC mm10 with Bowtie2 (bowtie2-very-sensitive-x mm10-1 FILE_merged_R1.fastq-2 FILE_merged_R2.fastq-X 1000-p 12 | samtools view-u-I samtools sort->FILE.bam). […] For scRNA-seq, raw sequence reads were quality-checked using FastQC software. […]
# WPMY-1 cells = assay: qPCR of CAF / stromal activation markers in WPMY-1 cells; format: cell-based, human; conditions: co-treatment with Olaparib
# Description: To knock out PARP-1 in WPMY-1 cells, single-guide RNA sequences targeting PARP-1 exon2 were purchased from Synthego and transduced into WPMY-1 cells with recombinant Streptococcus pyogenes Cas9 protein (Truecut Cas9 Protein v2, Thermo), using the Neon Transfection System 1 (Invitrogen) following the manufacturer's protocol and single clones were expanded and screened by protein immunoblotting. To perform AP1-A binding site editing in the SQSTM promoter in WPMY-1 cells, single-guide RNA sequences targeting the human AP1-A binding site (Synthego) was transduced into cells with a Cas9 protein and a single-stranded donor oligonucleotide (ssODN, IDT) using Neon Electroporation System. Single clones were expanded and screened for AP1-A editing by Sanger sequencing. A point mutation to disrupt the API enhancer element in the p62 promoter was introduced by Site Directed Mutagenesis (Stratagene). Knockdown of MCT1, MCT4, FOS, PARP1, PARP2, CD38, ATG5, and SIRT1-7 genes in WPMY-1 cells were achieved by siRNA transfection using Lipofectamine RNAiMAX Transfection Reagent (Invitrogen). Transient overexpression was achieved by transfection using X-tremeGENE HP transfection reagent (Roche). Transfected cells were examined 48 hours after transfection. Establishing stably GFP or RFP expressing cells was achieved by lentivirus-mediated transduction. Lentivirus were produced in HEK293T cells using X-tremeGENE HP transfection reagent (Roche). Virus-containing supernatants were collected 48, 72 and 96 hours after transfection, filtered to eliminate cells, and supplemented with 8 μg/ml polybrene. Cells were infected with three rounds of viral supernatants and selected with puromycin (3 μg/ml). For autophagy or proteasome inhibition, WPMY-1 cells were treated for 12 hours with 100 nM bafilomycin Al or 12 hours with 20 μM of MG132, respectively, or vehicle (DMSO). For PARP1 inhibition, WPMY-1 cells were treated with PJ34 (2 days) or Olaparib (4 days) at the doses indicated in each experiment. For MCT1 inhibition, WPMY-1 cells were treated for 48 hours with 10 μM of AZD3965. For cJUN inhibition, WPMY-1 cells were treated for 48 hours with 10 μM of SP600125. For calpains and caspases inhibition, WPMY-1 cells were treated for 48 hours with 1-20 μM of Calpeptin (Tocris) or z-VAD-FMK (Tocris), respectively. For protein synthesis inhibition, WPMY-1 cells were treated with 50 μg/ml of cycloheximide (Sigma). Conditioned media (CM) was generated by collecting supernatant on day 3. CM was transferred to a 15 ml BD Falcon tube and centrifuged at 1300 rpm for 10 minutes. The supernatant was sterile filtered using a […] (Millex-GV) with a 10 ml syringe barrel. The samples were stored at […] for future experiments. Fractionation of the CM was achieved using Amicon Ultra centrifugal filters (3KUltracel, Millipore). The supernatant was centrifuged at 4000 rpm for 1 hour. The supernatant fraction that was >3 kDa remained above the filter and that which was <3 kDa passed through to the lower chamber. The >3-kDa fraction was resuspended in DMEM to the pre-filtration volume.
# Total RNA from mouse tissues, cells and cultured organoids was extracted using the TRIZOL reagent (Invitrogen) and the RNeasy Mini Kit (QIAGEN), followed by DNase treatment. After quantification using a Nanodrop 1000 spectrophotometer (Thermo Scientific), RNA was either processed for RNA-seq or reverse-transcribed using random primers and MultiScribe Reverse Transcriptase (Applied Biosystems). Gene expression was analyzed by amplifying 20 ng of the complementary DNA using the CFX96 Real Time PCR Detection System with SYBR Green Master Mix (BioRad) and primers described in Table S1. The amplification parameters were set at 95° C. for 30 seconds, 58° C. for 30 seconds, and 72° C. for 30 seconds (40 cycles total). Gene expression values for each sample were normalized to the 18s RNA.
# [3] = tested on: BRCA deficient breast tumors; assay: GSEA of RNAseq data of BRCA deficient breast tumors (GSE125206)
# Description: as §1
smiles,measurement,setting,value
Cc1cccc(-c2nn3c(c2-c2ccnc4ccc(C(N)=O)cc24)CCC3)n1 [Galunisertib],Olaparib-induced proliferation (EdU),PC3 cells,completely abolished the stromal proliferation induced by Olaparib
"NC(=O)c1ccc[n+]([C@@H]2O[C@H](CO)[C@@H](O)[C@H]2O)c1 [NR, nicotinamide riboside]",rescue of lactate-induced reduction in p62,"[1]; lactate-treated WPMY-1 cells, 48 h, NAD 150 μM, NR 200 μM",completely rescued the lactate-induced reduction in p62
Cc1[nH]nc(C(F)(F)F)c1Cc1sc2c(c1C(=O)N1C[C@](C)(O)CO1)c(=O)n(C)c(=O)n2C(C)C [AZD3965],p62 downregulation induced by CM from PC3 cells,"[1]; WPMY-1 cells, MCT1 inhibitor 10 μM, PC3 CM 48 h",impaired p62 downregulation in WPMY-1 cells treated with PC3 CM
NC(=O)c1cccc2cn(-c3ccc([C@@H]4CCCNC4)cc3)nc12 [Niraparib],GSEA inflammatory signaling signatures,[2],increased inflammatory related signatures
same,GSEA signatures of stromal activation,[2],showing stromal activation
CNC(=O)c1ccccc1Oc1nc(Nc2cc(OC)c(OC)c(OC)c2)ncc1Br [SBI-0202965],Olaparib-induced activation of stroma (qPCR of CAF marker ACTA2),WPMY-1 cells,reverted the Olaparib-induced activation of stroma in a dose dependent manner; also recorded: reverts the stroma activation induced by Olaparib
Cn1ncnc1[C@H]1c2n[nH]c(=O)c3cc(F)cc(c23)N[C@@H]1c1ccc(F)cc1 [Talazoparib],GSEA inflammatory signaling signatures,[3]; Talazoparib vs saline,increased inflammatory related signatures
same,GSEA signatures of stromal activation,[3]; Talazoparib vs vehicle,significant enrichment of signatures of stromal activation; also recorded: showing stromal activation
CN(C)CC(=O)Nc1ccc2[nH]c(=O)c3ccccc3c2c1 [PJ34],"p62 expression (protein, SQSTM1 mRNA)","[1]; WPMY-1 cells, PJ34 24 h, Olaparib 48 h",reduced the expression of p62 in a dose-dependent manner
